Results taken from patent US6809083B1, “Use of N-substituted-1, 5-dideoxy-1, 5-imino-D-glucitol compounds for treating hepatitis virus infections” (priority 1998, dated 2004).

Assays:
[1] = system: woodchuck hepatitis virus (WHV); assay: Woodchuck model, N-nonyl-DNJ monotherapy, BID oral dosing for 4 weeks; total HBV DNA and IPDNA by quantitative PCR; format: in vivo
Excerpt: In order to evaluate the efficacy of N-nonyl-DNJ in combination with 3TC (or other nucleoside or nucleotide analogs) against Hepatitis B virus in a woodchuck animal model, an monotherapy experiment using N-nonyl-DNJ alone was first conducted. This was necessary to determine if N-nonyl-DNJ has any anti-HBV effect in the woodchuck and, if N-nonyl-DNJ has a beneficial effect, to design a combination study based on the dose-response relationship of this drug alone.
Therefore, five groups of four animals each (all groups had both sexes, all but the control had two of each sex) were assigned to 0, 12.5, 25, 50, and 100 mg/kg/day with BID oral dosing. These were lab-reared wild animals. All animals were infected with woodchuck hepatitis virus (WHV) as neonates, and had been tested positive on serological tests for WHV surface antigen. Blood samples were drawn one week prior to dosing (−1 week), immediately before dosing (0 weeks), weekly during dosing (1, 2, 3, and 4 weeks), and after the end of dosing (5, 6, 8, and 10 weeks).
There are two measures of drug efficacy: reduction in total HBV DNA (measured by quantitative PCR), and reduction in HBV DNA from capsids with intact surface glycoproteins, which is the active form of the virus (measured by an ELISA-like immune precipitation assay followed by quantitative PCR).
Before models are fitted to the data, a log transform was applied because: 1) the variation in IPDNA increases with increasing IPDNA values; the log transformation gives values with a nearly constant variation, and 2) it is expected that drug effects will appear as a constant multiplier of the IPDNA level. Because there are zero values of IPDNA, a small value (about 1/2 of the smallest non-zero value) was added to all values before the log transform.
Two approaches were used to model the changes in slope to week with dose of N-nonyl-DNJ: a linear modeling approach and a nonlinear model. Both approaches assume that the (linear) rate of change of the Log(IPDNA) measure over the dosing period is the “right” measure to reflect the effect of the drug on the virus. Both approaches are fit in stages, and the first stage is common to both approaches. First, a simple straight line regression model is fit using weeks 0-4 to predict log(IPDNA+10) separately for each animal by run combination. In the second stage, the response variable is the slope fitted in the first stage.
For the linear approach, a model is fit with slope to week as the response where run is considered a block, dose has a significant effect (almost all of this effect is due to a slope to dose), and the relevant error for testing the effect of dose is the variation among animals treated alike (after the adjustment for the runs as blocks). This is similar to using the calibration data within each run to first adjust each run's data to a common virus DNA concentration; the difference is that here the data from the woodchucks are used for the run adjustment rather than only the calibration data.
For the nonlinear approach, a four parameter logistic model is fit with the slope to week as the response and the dose as the predictor. Again, run is considered a block, but because no run has all weeks, it is not possible to fully reflect the blocking in the nonlinear approach. […] The average maximum slope observed was 2.71 additional Log(IPDNA μg/mL)/week, or an increase of about 150%/week, the average minimum slope observed with N-nonyl-DNJ is 0.31 fewer Log(IPDNA μg/mL)/week), or about a decrease of about 25%/week. The slopes, the fitted model, the parameter estimates from the model, and the approximate standard errors for these parameters are all shown in FIG. 3. […] Whether in woodchucks or humans, the effective dose of both the N-alkyl-DNJ and nucleoside or nucleotide antiviral agent administered in combination therewith can be administered in two equal daily subdoses (i.e., B.I.D.).

Hepatitis B Virus [2] = assay: IC-90 of N-nonyl-DNJ (T. Block and G. Jacob, unpublished observation); format: cell-based
Protocol: The anti-hepatitis B virus effect of (−)-2′-deoxy-3′-thiocytidine-5′-triphosphate (3TC) alone and in combination with N-nonyl-DNJ was determined according to Korba ((1996) Antiviral Research 29(1):49-51), using the “combostat” strategy (Comstat Program, Combostat Corp., Duluth, Minn.). The combostat method involves serially diluting the IC-90 of each compound. The IC-90 of N-nonyl-DNJ has been determined to be between 4 and 10 μg/ml (T. Block and G. Jacob, unpublished observation). The accepted IC-90 for 3TC in HepG 2.2.15 (2.2.15) cells is 300 nM to 500 nM (Doong et al. (1991) Proc. Natl. Acad. Sci. USA 88:8495-8499).

Hepatitis B Virus [3] = assay: Hepatitis B virus secretion from chronically HBV secreting HepG2.2.15 cells (preS1 immunoprecipitation of virions, PCR of viral DNA); format: cell-based; conditions: 3 days incubation
Protocol: (§1) The anti-hepatitis B virus activity and effect on cell viability of a number of different N-substituted-1,5-dideoxy-1,5-imino-D-glucitol compounds were assessed using an in vitro assay employing chronically hepatitis B virus secreting HepG2.2.15 cells. The method employed was essentially that described in Block et al. (1994) Proc. Natl. Acad. Sci. USA 91:2235-2239.

HepG2.2.15 cells = assay: Viability of HepG2.2.15 cells, trypan blue exclusion; format: cell-based; conditions: [200] and [1000]; trypan blue staining not performed
Protocol: as §1

[4] = concentration [200] (unit not given)
[5] = concentration [1000] (unit not given)

Row | SMILES | effect on total HBV DNA measurements ([1]; woodchuck, all dose levels, pre-dose and dosed portions of the study) | average minimum slope observed ([1]; woodchuck, weeks 0-4) | decrease of IPDNA corresponding to average minimum slope ([1]; woodchuck, weeks 0-4) | increase of IPDNA corresponding to average maximum slope ([1]; woodchuck, weeks 0-4) | average maximum slope observed ([1]; woodchuck, weeks 0-4, upper end of dose-response model) | approximate effective monotherapy dose ([1]; woodchucks, oral) | IC90 (Hepatitis B Virus [2]) | Relative amount of HBV secreted, as a % of control (Hepatitis B Virus [3]; [4]) | Relative amount of HBV secreted, as a % of control (Hepatitis B Virus [3]; [5]) | Appearance of cells by gross microscopic examination (HepG2.2.15 cells)
1 | CCCCCCCCCN1C[C@H](O)[C@@H](O)[C@H](O)[C@H]1CO [Compound 1, N-(n-nonyl)-1,5-dideoxy-1,5-imino-D-glucitol] | no effect | 0.31 fewer Log(IPDNA μg/mL)/week | about 25 %/week | about 150 %/week | 2.71 additional Log(IPDNA μg/mL)/week | about 16 mg/kg/day | 4 to 10 µg/mL |  |  | 
2 | CCC(CC)CN1C[C@H](O)[C@@H](O)[C@H](O)[C@H]1CO [Compound 3, N-(2-ethylbutyl)-1,5-dideoxy-1,5-imino-D-glucitol] |  |  |  |  |  |  |  | 45.0 +/− 30 (n = 3) % of control | 5.0 +/− 20 (n = 3) % of control | ^5Although trypan blue viability staining was not performed, cells appeared unremarkable (healthy) by gross microscopic examination.
3 | CCCCN1C[C@H](O)[C@@H](O)[C@H](O)[C@H]1CO [NBDNJ, N-(n-butyl-)-1,5-dideoxy-1,5-imino-D-glucitol, reference compound] |  |  |  |  |  |  |  | 37.0 +/− 13 (n = 15) % of control | 3.2 +/− 5 (n = 15) % of control | 
